Measured values taken from patent publication US12144889B2, “Methods of treating allergic conjunctivitis” (OCULAR THERAPEUTIX, INC., priority 2020, dated 2024).

Experiments:
[1] = oral, cited from earlier work; for Relative Potency: with reference to cortisol
[2] = 25° C.; cited from earlier work
[3] = Solubility of dexamethasone in water / aqueous medium; type: physicochemical; settings: aqueous medium such as the tear fluid
Source text: In certain embodiments of the present invention, dexamethasone is micronized and may have a D50 particle size of less than about 10 μm and/or a D99 particle size of less than about 50 μm. A specific suitable micronized dexamethasone for use in certain embodiments of the present invention is “Dexamethasone USP micronized” from Pfizer with a D90 particle size of equal to or less than about 5 μm (i.e., the volume portion of particles with a particle size of or below about 5 μm is 90%), and a D98 particle size of equal to or below about 10 μm (i.e., the volume portion of particles with a particle size of equal to or below about 10 μm is 98%). The “D” value such as in “D50” means that the indicated percentage by volume (such as 50 volume-% in D50 etc.) of all particles within the respective bulk material (which has a certain particle size distribution) has a particle size of or below the indicated value, e.g. a D50 particle size of below about 10 μm means that 50 volume-% of the particles have a particle size of or below about 10 μm. The particle size distribution can be commonly measured by methods known in the art, and includes sieving as well as laser diffraction methods. […]
It is believed that release of the glucocorticoid into the tear fluid is determined by the glucocorticoid's solubility in an aqueous environment. […]

SMILES | Equivalent Dose [1] | Relative Potency [1] | solubility in water [2] | solubility [3]
C[C@]12C=CC(=O)C=C1CC[C@@H]1[C@@H]2[C@@H](O)C[C@@]2(C)[C@H]1CC[C@]2(O)C(=O)CO [Prednisolone] | 5 mg | 4 | – | –
C[C@@H]1C[C@H]2[C@@H]3CCC4=CC(=O)C=C[C@]4(C)[C@@]3(F)[C@@H](O)C[C@]2(C)[C@@]1(O)C(=O)CO [Dexamethasone, 9-Fluor-11β,17,21-trihydroxy-16α-methyl-pregna-1,4-dien-3,20-dion] | 0.8 mg | – | approx. 89 mg/L | < 100 µg/mL
C[C@]12CCC(=O)C=C1CC[C@@H]1[C@@H]2[C@@H](O)C[C@@]2(C)[C@H]1CC[C@]2(O)C(=O)CO [Cortisol (Hydrocortisone), Cortisol] | 20 mg | 1 | – | –
C[C@]12C=CC(=O)C=C1CC[C@H]1[C@@H]3C[C@@H](O)[C@](O)(C(=O)CO)[C@@]3(C)C[C@H](O)[C@@]12F [Triamcinolone] | 4 mg | 5 | – | –
